Data from US20240299328A1, “COMPOSITIONS COMPRISING 15-HEPE AND METHODS OF TREATING AND/OR PREVENTING HEMATOLOGIC DISORDERS AND RELATED DISEASES” (Afimmune Limited, priority 2023, published 2024).
Marks after values point to notes of the source that are not given here.

Legend:
Sprague Dawley rats = assay: 26 week rat toxicity study: hematology; format: in vivo; conditions: male rats, 26 weeks
Description: The test and control items were administered to the appropriate animals by once daily oral gavage 7 days a week for a minimum of 26 weeks. The volume for each animal was based on the most recent body weight measurements. The doses were given using a syringe with attached gavage cannula. The first day of dosing was designated as Day 1. The dosing formulations were removed from the refrigerator and stirred for at least 30 minutes before dosing. The dosing formulations were also stirred continuously during dosing.
Sample Collection: Blood was collected via the tail vein unless immediately prior to necropsy, when blood was collected from the orbital sinus under non-recoverable isoflurane anesthesia. Blood was collected in ascending animal order unless samples were collected prior to necropsy where the order of euthanasia was followed. Additional blood samples were obtained (e.g., due to clotting of non-serum samples) if permissible sampling frequency and blood volume were not exceeded. After collection, samples were transferred to the appropriate laboratory for processing. Samples were collected according to the following table.
Hematology: A 0.5 mL blood sample was collected using the anticoagulant K2EDTA. Blood smears were labelled, stained, and stored. The blood smears were analyzed according to the following parameters.
Animals: The study used male and female Sprague Dawley rats purchased from Charles River UK Limited (Margate, Kent, UK). The target age at the initial dosing was 7-8 weeks. The target weight at the initial dosing was 175-300 g (males) and 120-250 g (females). Each animal was identified using a subcutaneously implanted electronic cylindrical, “glass-sealed” TROVAN microchip.

[1] = 0.5% HPMC vehicle; same preparation and storage conditions; concentrations bracketing those used; cited from earlier work
[2] = test system: humanized sickle cell (SS) mice exposed to H/R stress; assay: Humanized SCD (SS) mice exposed to hypoxia/reoxygenation (H/R) stress: blood, flow cytometry, immunoblot; format: in vivo
Description: Animals and design of the study: Experiments were performed on 4-5 months-old sex matched healthy control (Hba^tm1(HBA) Tow Hbb^tm3(HBG1, HBB) Tow) and SCD (Hba^tm1(HBA)Tow Hbb^tm2(HBG1.HBB*)Tow) mice. The study used 4-5 months-old mice. The sickle cell related organ damage is not so severe to generate confounding factors when the impact of H/R induced stress is evaluated. This is also corroborated by the observation of Kasztan M et al who show gender-related differences in kidney function of humanized SCD mice becoming significant after 24 weeks (6 months) of age. The size of the mouse groups was established based on studies with the same mouse model for SCD generated by us and other labs. Mice were randomly assigned to the different treatment groups and analysis. Healthy and SS mice were treated with ether vehicle (hydroxypropyl methyl cellulose, HPMC, 0.5%) or Epeleuton in HPMC 0.5% (1000 mg/kg/day) administrated by gavage for 6 weeks. […] When indicated, mice underwent a hypoxia/reoxygenation stress (H/R): 10 hours hypoxia (8% oxygen) followed by 3 hours reoxygenation (21% oxygen) to mimic acute vaso-occlusive crisis as previously described. Whole blood and organs were collected from each mouse under isoflurane anesthesia. Organs were immediately removed and divided into two portions which were either immediately frozen in liquid nitrogen or fixed in 10% formalin and embedded in paraffin for histology. Hematological parameters were evaluated with a Sysmex XN-1000 Hematology Analyzer and red cell morphology was evaluated as previously reported. Biochemical assays were performed using standard biochemical assays, as previously reported. Plasmatic Pentraxin 2 and CCL-2 and CXCL-2 were measured respectively using the Mouse Pentraxin 2/SAP Quantikine ELISA Kit and the next generation ELISA kit according to the manufacturer's instruction.
Immunoblot analysis: Packed red cells were lysed in ice-cold phosphate lysis buffer (5 mM Na2HPO4, pH 8.0, containing protease inhibitor cocktail tablets, 3 mM benzamidine final concentration, 1 mM Na3VO4 final concentration) and centrifuged 10 min at 4° C. at 12,000 g. Red cell membrane (ghost) and cytosol fractions were obtained as previously reported. Frozen lung, kidney and aorta from each studied group were homogenized and lysed with iced lyses buffer (150 mM NaCl, 25 mM bicine, 0.1% SDS, 2% Triton X-100, 1 mM EDTA, protease inhibitor cocktail tablets, 1 mM Na3VO4 final concentration) then centrifuged 30 min at 4° C. at 12,000 g. Specific antibodies used are: anti Phospho-Tyrosine (clone PY99 from SCBT, Santa Cruz, CA (dilution 1:3000, 75 μg loaded) and clone 4G10 from Merck KGaA, Darmstadt, Germany (dilution 1:1600, 75 μgr loaded)); anti Phospho (Ser536) NF-kB p65 (dilution 1:1000, 75 μg loaded) and anti NF-kB p65 (clone C22B4) (dilution 1:1000, 75 μgr loaded) from Cell Signaling Technology (Danvers, MA, USA); anti-NLRP3/NALP3 from Vinci-Biochem Srl, Vinci, Italy (dilution 1:1000, 75 μgr loaded); anti Endothelin-1 (ET-1) form AbCam, Cambridge, UK (dilution 1:1000, 75 μgr loaded); anti VCAM-1 (R and D Systems, Minneapolis, MN, USA (dilution 1:1000, 40 μgr loaded)); anti ICAM-1 (clone EP1442Y, dilution 1:1000, 75 μgr loaded, AbCam, Cambridge, UK); anti TXAS-1 (Cayman, Ann Arbor, MI, USA); anti Nrf2-phospho-S40 (Clone EP1809Y, dilution 1:1000, 75 μgr loaded, AbCam, Cambridge, UK); anti-Nrf2 (dilution 1:1000, 75 μgr loaded, AbCam, Cambridge, UK); anti Nqo1 from Santa Cruz Biotechnology, Inc, CA, USA (clone C-19; dilution 1:1000, 75 μgr/μl loaded); anti-heme oxygenase 1(HO-1) form SCBT (Santa Cruz, CA, USA (dilution 1:1000, 50 μgr loaded); E-selectin (H-300) (dilution 1:1000, 75 μgr loaded); anti GAPDH from SCBT (Santa Cruz, CA, USA (dilution 1:5000, 50 μgr loaded)); anti Actin from SCBT (Santa Cruz, CA, USA (clone 2A3, dilution 1:1000, 50 μgr/loaded)). […]

[3] = 6000/3000 mg/kg/day oral gavage
[4] = H/R, 1000 mg/Kg/d for 6 weeks, vs vehicle
[5] = H/R, 1000 mg/Kg/day for 6 weeks

CC/C=C\C[C@H](O)/C=C/C=C\C/C=C\C/C=C\CCCC(=O)OCC [DS102, 15(S)-hydroxy-(5Z,8Z,11Z,13E,17Z)-eicosapentaenoic acid ethyl ester]
Red Cell Distribution Width (RDW), Mean (Sprague Dawley rats; 2000 mg/kg/day oral gavage): 13.91** % | Red blood cell count (RBC), Mean (Sprague Dawley rats; 2000 mg/kg/day oral gavage): 8.67 10^12/L | Reticulocyte count (RETIC), Mean (Sprague Dawley rats; 2000 mg/kg/day oral gavage): 1.546e+11 L⁻¹ | Red Cell Distribution Width (RDW), Mean (Sprague Dawley rats; [3]): 13.60** % | Red blood cell count (RBC), Mean (Sprague Dawley rats; [3]): 8.81** 10^12/L | Reticulocyte count (RETIC), Mean (Sprague Dawley rats; [3]): 141.46** 10^9/L | stability of the test item in the vehicle [1]: stable | spleen macrophage classic inflammatory markers (CD80, CD68) ([2]; 1000 mg/Kg/day for 6 weeks, vs vehicle): significant reduction | H/R induced increase in NLRP3, VCAM-1, ET-1 and TXAS-1 expression in kidney ([2]; H/R, 1000 mg/Kg/d for 6 weeks): reduction | NLRP3 inflammasome in lung tissue ([2]; H/R, 1000 mg/Kg/d for 6 weeks): downregulation | VCAM-1 in livers ([2]; H/R, 1000 mg/Kg/d for 6 weeks): prevented the H/R induced up-regulation | activation of NF-kB p65 and Nrf2 in liver ([2]; H/R, 1000 mg/Kg/d for 6 weeks): reduced activation | active forms of NF-kB p65 induced by H/R in lung ([2]; H/R, 1000 mg/Kg/d for 6 weeks): significant decrease | antioxidants NQO1 and HO-1 in liver ([2]; H/R, 1000 mg/Kg/d for 6 weeks): downregulation | expression of NLRP3 in livers ([2]; H/R, 1000 mg/Kg/d for 6 weeks): lower expression | liver protein oxidation ([2]; H/R, 1000 mg/Kg/d for 6 weeks): marked reduction | ET-1 in livers [2, 4]: trend towards reduction | H/R induced activation of NF-kB p65 in kidneys [2, 4]: decreased | H/R induced expression of VCAM-1 in isolated aorta [2, 4]: significant reduction | H/R-induced increases in creatinine and BUN plasma values [2, 4]: reduction | leukocyte infiltrates in kidneys (flow cytometry) [2, 4]: significant reduction | H/R-induced increase in neutrophil counts [2, 5]: significantly reduced | amount of sickled red blood cells [2, 5]: decreased | hematocrit (Hct) and hemoglobin (Hb) [2, 5]: prevented the H/R induced reduction | plasma C reactive protein (CRP) and pentraxin-2 [2, 5]: decreased | spleen neutrophils ([2]; H/R, 1000 mg/Kg/day for 6 weeks, vs vehicle): significant decrease | lactate dehydrogenase (LDH) ([2]; H/R, plasma, 1000 mg/Kg/day for 6 weeks): reduction | tyrosine phosphorylation state of band 3 ([2]; H/R, red cell membrane, 1000 mg/Kg/day for 6 weeks): reduction | clearance of damaged RBCs ([2]; spleen macrophages, 1000 mg/Kg/day for 6 weeks, vs vehicle): trend towards reduction
